One data set deals with tolvaptan treated rats. Briefly: Urine osmolality / urine concentrating ability in tolvaptan treated rats. As to conditions: FIG. 1; for urine osmolality: rats on tolvaptan 10 mg/kg/day by gavage, AMPK activator 2.5, 5 and 10 mg/kg/day up to 14 days, vs tolvaptan only. Format: in vivo. The protocol: Tolvaptan (10 mg/kg/day) was delivered by gavage feeding daily. AMPK activator was given at 2.5, 5 and 10 mg/kg/day for up to 14 total days, with daily urine collection for osmolality determination. Light bars: Osmolality in rats receiving tolvaptan only. Black bars: treated rats. Mean±s.e., n=4-5 for lower doses, 8-10 for 10 mg/kg/day, *=p<0.05.

Data set [1] has as its system vasopressin type 2 receptor knockout mouse model. The data set can be described thus: Urine concentrating ability in vasopressin type 2 receptor knockout mouse model. Format: in vivo.
Data set [2] deals with adenosine monophosphate activated protein kinase (AMPK). The data set can be described thus: AMPK activator potency and specificity (preliminary data).
Data set [3] in a line: Hypoglycemia liability of AMPK activators. Format: in vivo. Particulars: preliminary data.
Data set [4] relates to autosomal dominant polycystic kidney disease (ADPKD). As to conditions: cited from earlier work.
For data set [5] the following is noted: general statement on some AMPK activators; cited from earlier work.
Data set [6] has as its system rodents with nephrogenic diabetes insipidus. Particulars: Efe et al., JCI Insight 2016; cited from earlier work.

The structures appear in SMILES notation. Where two headings read alike, the source gives them in different places.

On to `NC(=O)C1(CCCCCCCCCCCCC2(C(N)=O)CC2)CC1` [NP-5033, 1,1′-(dodecane-1,12-diyl)bis(cyclopropane-1-carboxamide)], for which the values for the urine osmolality entry in the data set on tolvaptan treated rats and with tolvaptan treated rats (listed as AMPK activator) were “increases urine osmolality” and “urine osmolality increases”, respectively. The urine concentrating ability entry (with tolvaptan treated rats (tolvaptan treated rats); in data set [1]) was “improvement in urine concentrating ability” in each case. In addition, in data set [2], the “potency and specificity as AMPK activator” value was “potent, specific”. Besides, the hypoglycemia result in data set [3] was “does not cause hypoglycemia”.

With `Cc1ccccc1C(=O)Nc1ccc(C(=O)N2CCCC(O)c3cc(Cl)ccc32)c(C)c1` (stereo not shown) [tolvaptan, N-(4-(7-chloro-5-hydroxy-2,3,4,5-tetrahydro-1H-benzo[b]azepine-1-carbonyl)-3-methylphenyl)-2-methylbenzamide], the “progression of renal cyst development” value in data set [4] (ADPKD) is recorded as “slows the progression of renal cyst development”. Also, the “side effect: urine volume” value in data set [4] (tolvaptan treatment, polyuria defined as greater than 2.5 L or 3 L over 24 hours in adults) is “overt polyuria”.

`CN(C)C(=N)N=C(N)N` [metformin]: in data set [5], the hypoglycemia entry is recorded as “risk of developing hypoglycemia”. For the same molecule, in data set [6], the urine concentration entry is on record as “improves urine concentration”.

Values taken from patent US20230364039A1, “Methods of Managing Side Effects of a Vasopressin Receptor Antagonist Therapy” (Emory University, priority 2020, published 2023).
